The values that follow come from US20060236430A1, “Methods and compositions for producing male sterile plants” (priority 2003, published 2006).

Data set [1] concerns the target T1, hydroxyjasmonic acid sulfotransferase encoded by the AtST2a gene (Arabidopsis thaliana, UniProt Q8L5A7).
T1 sequence (Q8L5A7 1-359): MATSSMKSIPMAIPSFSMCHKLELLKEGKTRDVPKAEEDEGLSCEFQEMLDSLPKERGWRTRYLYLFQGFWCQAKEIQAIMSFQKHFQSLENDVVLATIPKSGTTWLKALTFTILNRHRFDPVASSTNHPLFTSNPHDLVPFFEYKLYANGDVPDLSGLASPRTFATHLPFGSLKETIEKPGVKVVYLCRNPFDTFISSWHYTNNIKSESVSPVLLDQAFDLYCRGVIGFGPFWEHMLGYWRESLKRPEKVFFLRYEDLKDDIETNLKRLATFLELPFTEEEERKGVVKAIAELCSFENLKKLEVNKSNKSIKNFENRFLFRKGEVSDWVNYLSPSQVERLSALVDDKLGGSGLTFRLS
As to the kind of experiment: Substrate specificity and kinetics of the AtST2a hydroxyjasmonic acid sulfotransferase. The data set is classed as biochemical. Particulars: structurally related compounds. The source says: (§1) SEQ ID NO 1 (FIG. 6; GenBank®: accession number NM_120783) corresponds to the gene AtST2a in Arabidopsis thaliana. SEQ ID NO 3 (FIG. 7) is an amino acid sequence deduced from SEQ ID NO 1. This amino acid sequence is of public domain and can be retrieved from GenBank®, accession number NM_120783. The AtST2a gene from Arabidopsis thaliana encodes a sulfotransferase that sulfonates 12-OHJA and 11-OHJA with high specificity.

For data set [2], the system named is transgenic Nicotiana tabacum plants (line 7) expressing AtST2a. Kind of data set: Normalization experiment: restoring normal anther development in male sterile transgenic tobacco expressing AtST2a. The data set is classed as in vivo. Particulars: for restoration of the male sterile phenotype by exogenous application: transgenic tobacco overexpressing AtST2a, concentration not given. Here is the method:
The apex of T2 plants of line 7 was soaked daily in a solution containing either: 0.05% Tween20 in water (control), 0.05% Tween20 in water containing 50 μM MeJA or 0.05% Tween20 in water containing 100 μM 12-OHJA. The treatments were started approximately 7 days before the appearance of the first flower buds and lasted a total of 14 days. A minimum of 5 plants for each treatment were analyzed in this study.
In order to restore the phenotype, the apex of transgenic plants were soaked daily for 2 minutes in a solution containing 100 μM 12-OHJA dissolved in aqueous 0.05% TWEEN20. The application was started approximately 7 days prior to the appearance of the first flower bud and was continued for 7 days after the first flower appeared.

Data set [3] deals with A. thaliana opr3 mutant deficient in JA biosynthesis. As to the kind of experiment: Restoring the male sterile phenotype of the opr3 mutant by exogenous application to the inflorescence. The format is in vivo, Arabidopsis thaliana. Particulars: data not shown.
Substrate in data set [4]: O=C(O)CC1CCC(=O)C1CC=CCCO
Kind of data set: Substrate specificity and kinetics of the AtST2a hydroxyjasmonic acid sulfotransferase. The data set is classed as biochemical, Arabidopsis thaliana. Particulars: other: as substrate of the sulfotransferase; pH 7.5.
Source text: as §1

Substrate in data set [5]: CC(O)C=CCC1C(=O)CCC1CC(=O)O
The description is as above. The format is biochemical, Arabidopsis thaliana. The conditions noted are these: other: as substrate of the sulfotransferase; pH 7.5.
Source text: as §1

“Also recorded” adds a separate entry of the source.

In general, Km refers to the substrate concentration at which the rate is half of its maximum.

Regarding `CC/C=C/CC1C(O)CCC1CC(=O)O` (stereo not drawn) [cucurbic acid], the “acceptance as substrate by the enzyme” value in data set [1] was “did not accept”.
As for `CC/C=C\C[C@H]1C(=O)CC[C@@H]1CC(=O)O` [JA, jasmonic acid], the “restoration of the male sterile phenotype by exogenous application” value in data set [2] is recorded as “could be restored”.
`CCCCC/C=C\C/C=C\C/C=C\C/C=C\CCCCO` [arachidonyl alcohol]: the “acceptance as substrate by the enzyme” value in data set [1] was “did not accept”.
`O=C(O)CC1CCC(=O)C1CC=CCCO` (stereo not drawn) [12-OHJA, 3-Oxo-2-(5-hydroxy-2-pentenyl)-cyclopentane-1-acetic acid]: the “restoration of normal anther development” value in data set [2] (100 μM in aqueous 0.05% TWEEN20, apex of line 7 soaked daily for 2 minutes, 14 days) is recorded as “restoration of the mutant phenotype; also recorded: restored normal anther development”. For the same molecule, in data set [2] (apex of transgenic plants treated for 14 days (FIG. 5)), the “production of viable pollen” value was “production of viable pollen”. Further, the “restoration of the male sterile phenotype by exogenous application” value in data set [2] was “could be restored”. Further, the “restoration of the male sterile phenotype” value in data set [3] is listed as “restore the male sterile phenotype”.

B1: hydroxyjasmonic acid sulfotransferase encoded by the AtST2a gene (Arabidopsis thaliana) (protein)
chain: MATSSMKSIPMAIPSFSMCHKLELLKEGKTRDVPKAEEDEGLSCEFQEMLDSLPKERGWRTRYLYLFQGFWCQAKEIQAIMSFQKHFQSLENDVVLATIPKSGTTWLKALTFTILNRHRFDPVASSTNHPLFTSNPHDLVPFFEYKLYANGDVPDLSGLASPRTFATHLPFGSLKETIEKPGVKVVYLCRNPFDTFISSWHYTNNIKSESVSPVLLDQAFDLYCRGVIGFGPFWEHMLGYWRESLKRPEKVFFLRYEDLKDDIETNLKRLATFLELPFTEEEERKGVVKAIAELCSFENLKKLEVNKSNKSIKNFENRFLFRKGEVSDWVNYLSPSQVERLSALVDDKLGGSGLTFRLS
As for B1, the Km turned out to be 11 µM in data set [4] and 60 µM in data set [5].
